# Measured values from EPA's ToxRefDB 2.
# Tests used:
# mouse [1] = details: Chronic toxicity, b6c3f1, Oral, Feed, dose end: 1 year, group: systemic
# mouse [2] = details: Subchronic oral toxicity in rodents, b6c3f1, Feed, dose end: 90 day, group: systemic, systemic / clinical chemistry / glucose / glucose + systemic / in life observation / body weight / body weight gain + systemic / clinical …
# rat [3] = details: Multigenerational reproductive toxicity study, fischer, Oral, Feed, dose end: 2 generation
# rat [4] = details: Combined chronic toxicity/carcinogenicity, fischer, Oral, Feed, dose end: 2 year, group: systemic
# rat [5] = details: Subchronic oral toxicity in rodents, fischer, Feed, dose end: 90 day, group: systemic
# rabbit [6] = details: Prenatal developmental toxicity study, dutch, Oral, Gavage/Intubation, dose end: 18 GD, group: maternal
# mouse [7] = details: Carcinogenicity, b6c3f1, Oral, Feed, dose end: 24 month, group: systemic
# mouse [8] = details: Carcinogenicity, b6c3f1, Oral, Feed, dose end: 2 year, group: systemic
# dog [9] = details: Chronic toxicity; beagle; Oral; Capsule; dose end: 52 week; group: systemic; systemic / clinical chemistry / thyroxine (t4) / thyroxine (t4), total
# mouse [10] = details: Subchronic oral toxicity in rodents, b6c3f1, Feed, dose end: 90 day, group: systemic
# rat [11] = details: Prenatal developmental toxicity study, sprague dawley, Oral, Gavage/Intubation, dose end: 17 GD
# rat [12] = details: Subchronic oral toxicity in rodents, fischer, [Not Specified], dose end: 90 day, group: systemic
# rat [13] = details: Combined chronic toxicity/carcinogenicity, fischer, Oral, Feed, dose end: 104 week, group: systemic
# dog [14] = details: Chronic toxicity, beagle, Oral, Capsule, dose end: 52 week, group: systemic
# rabbit [15] = details: Prenatal developmental toxicity study, new zealand white, Oral, Gavage/Intubation, dose end: 18 GD
# rat [16] = details: Prenatal developmental toxicity study, sprague dawley, Oral, Gavage/Intubation, dose end: 17 GD; remark: listed apart in the source
# mouse [17] = details: Carcinogenicity, cd1, Oral, Feed, dose end: 80 week, group: systemic
# dog [18] = details: Subchronic oral toxicity in nonrodent, beagle, Capsule, dose end: 90 day, group: systemic
# mouse [19] = details: Subchronic oral toxicity in rodents, cd1, Feed, dose end: 90 day, group: systemic
# dog [20] = details: Chronic toxicity; beagle; Oral; Feed; dose end: 52 week; group: systemic; systemic / organ weight / liver / relative to body weight + systemic / pathology microscopic / liver / vacuolization + systemic / pathology …
# rat [21] = details: Combined chronic toxicity/carcinogenicity, other, Oral, Feed, dose end: 24 month, group: systemic
# mouse [22] = details: Carcinogenicity; cd1; Oral; Feed; dose end: 80 week; group: systemic; systemic / pathology microscopic / liver / adenoma + systemic / in life observation / body weight / body weight gain + systemic / in life …
# dog [23] = details: Subchronic oral toxicity in nonrodent, beagle, Feed, dose end: 90 day, group: systemic, systemic / hematology / erythrocyte (rbc) count differential / erythrocyte (rbc) + systemic / hematology / hematocrit (hct) / hematocrit (…
# rat [24] = details: Subchronic oral toxicity in rodents, sprague dawley, Feed, dose end: 90 day, group: systemic, systemic / in life observation / body weight / body weight + systemic / in life observation / body weight / body weight gain + systemic / in…
# [25] = systemic / pathology microscopic / kidney / pyelonephritis + systemic / pathology microscopic / urinary bladder / inflammation + systemic / …
# [26] = group: offspring, systemic / in life observation / body weight / offspring (pup) weight
# [27] = group: parental, systemic / organ weight / kidney / absolute + systemic / organ weight / kidney / relative to body weight + systemic / pathology microscopic…
# [28] = systemic / hematology / erythrocyte (rbc) count differential / erythrocyte (rbc) + systemic / hematology / hematocrit (hct) / hematocrit (…
# [29] = systemic / pathology microscopic / mammary gland / fibroadenoma
# [30] = systemic / organ weight / kidney / absolute + systemic / organ weight / kidney / relative to body weight + systemic / pathology microscopic…
# [31] = systemic / urinalysis / sediment microscopic / crystalluria + systemic / urinalysis / ph / ph
# [32] = systemic / in life observation / food consumption / food consumption + reproductive / offspring survival early / litter size / litter size…
# [33] = systemic / in life observation / food consumption / food consumption + systemic / in life observation / body weight / body weight gain
# [34] = systemic / in life observation / body weight / body weight gain
# [35] = systemic / in life observation / body weight / body weight gain + systemic / organ weight / uterus / absolute + systemic / organ weight / …
# [36] = systemic / organ weight / uterus / absolute
# [37] = systemic / in life observation / body weight / body weight + systemic / organ weight / spleen / absolute
# [38] = group: developmental, developmental / developmental malformation / bone / incomplete ossification + systemic / in life observation / body weight / fetal weight
# [39] = group: developmental, developmental / developmental malformation / bone / incomplete ossification + systemic / in life observation / body weight / fetal weight + …
# [40] = group: maternal, reproductive / reproductive performance / preimplantation loss / preimplantation loss + systemic / in life observation / body weight / body …
# [41] = systemic / hematology / blood clotting / blood clotting - activated partial thromboplastin time + systemic / hematology / blood clotting / …
# [42] = systemic / urinalysis / appearance and color / appearance and color + systemic / pathology microscopic / pancreas / proliferation
# [43] = systemic / pathology gross / gallbladder / discolored + systemic / pathology microscopic / liver / hemosiderin laden macrophages
# [44] = group: developmental, developmental / developmental malformation / bone / full supernumerary
# [45] = group: maternal, reproductive / reproductive performance / resorptions / resorptions + systemic / in life observation / body weight / body weight gain + …
# [46] = group: developmental, developmental / developmental malformation / bone / misshapen + developmental / developmental malformation / bone / supernumerary + …
# [47] = group: maternal, systemic / in life observation / clinical signs / general pallor + systemic / in life observation / clinical signs / piloerection + systemic…
# [48] = systemic / clinical chemistry / alanine aminotransferase (alt/sgpt) / alanine aminotransferase (alt/sgpt) + systemic / clinical chemistry / …
# [49] = systemic / in life observation / body weight / body weight gain + systemic / in life observation / food consumption / food efficiency
# [50] = systemic / in life observation / body weight / body weight gain + systemic / in life observation / food consumption / food efficiency + …
# [51] = systemic / clinical chemistry / albumin / albumin + systemic / hematology / eosinophils / eosinophils + systemic / hematology / neutrophils…
# [52] = systemic / hematology / eosinophils / eosinophils + systemic / hematology / neutrophils / neutrophils + systemic / organ weight / liver / …
# [53] = systemic / in life observation / body weight / body weight gain + systemic / in life observation / body weight / body weight + systemic / …
smiles,measurement,setting,value
CCCN(CCC)c1c([N+](=O)[O-])cc(S(N)(=O)=O)cc1[N+](=O)[O-] [Oryzalin],LEL,mouse [1]; systemic / clinical chemistry / creatinine / creatinine + systemic / clinical chemistry / urea nitrogen / urea nitrogen,193 mg/kg/day
same,NEL,mouse [1]; systemic / clinical chemistry / creatinine / creatinine + systemic / clinical chemistry / urea nitrogen / urea nitrogen + systemic / …,71 mg/kg/day
same,LOAEL,mouse [1]; [25],> 521 mg/kg/day
same,NOAEL,mouse [1]; [25],≥ 521 mg/kg/day
same,LEL,mouse [2],1430 mg/kg/day
same,LOAEL,mouse [2],> 1430 mg/kg/day
same,NEL,mouse [2],< 1430 mg/kg/day
same,NOAEL,mouse [2],≥ 1430 mg/kg/day
same,LEL,rat [3]; [26],179 mg/kg/day
same,LOAEL,rat [3]; [26],179 mg/kg/day
same,NEL,rat [3]; [26],58.7 mg/kg/day
same,NOAEL,rat [3]; [26],58.7 mg/kg/day
same,LOAEL,rat [3]; [27],19.4 mg/kg/day
same,NOAEL,rat [3]; [27],< 19.4 mg/kg/day
same,LOAEL,rat [4]; [28],42.9 mg/kg/day
same,NOAEL,rat [4]; [28],13.8 mg/kg/day
same,LEL,rat [4]; [29],13.8 mg/kg/day
same,NEL,rat [4]; [29],< 13.8 mg/kg/day
same,LOAEL,rat [5]; [30],45.9 mg/kg/day
same,NOAEL,rat [5]; [30],4.56 mg/kg/day
same,LEL,rat [5]; [31],4.56 mg/kg/day
same,NEL,rat [5]; [31],< 4.56 mg/kg/day
same,LEL,rabbit [6]; [32],55 mg/kg/day
same,LOAEL,rabbit [6]; [32],55 mg/kg/day
same,NEL,rabbit [6]; [33],25 mg/kg/day
same,NOAEL,rabbit [6]; [33],25 mg/kg/day
same,LOAEL,mouse [7]; [34],521 mg/kg/day
same,NEL,mouse [7]; [35],71 mg/kg/day
same,NOAEL,mouse [7]; [35],193 mg/kg/day
same,LEL,mouse [7]; [36],193 mg/kg/day
same,LOAEL,mouse [8]; [34],287 mg/kg/day
same,NOAEL,mouse [8]; [34],104 mg/kg/day
same,LEL,mouse [8]; [36],112 mg/kg/day
same,NEL,mouse [8]; systemic / organ weight / uterus / absolute + systemic / clinical chemistry / glucose / glucose + systemic / hematology / hematocrit (hct…,42.2 mg/kg/day
same,LEL,dog [9],1.5 mg/kg/day
same,LOAEL,dog [9],15 mg/kg/day
same,NEL,dog [9],< 1.5 mg/kg/day
same,NOAEL,dog [9],5 mg/kg/day
same,LOAEL,mouse [10]; systemic / in life observation / body weight / body weight,1140 mg/kg/day
same,LEL,mouse [10]; [37],1140 mg/kg/day
same,NEL,mouse [10]; [37],521 mg/kg/day
same,NOAEL,mouse [10]; [37],521 mg/kg/day
same,LEL,rat [11]; [38],225 mg/kg/day
same,LOAEL,rat [11]; [38],225 mg/kg/day
same,NEL,rat [11]; [39],50 mg/kg/day
same,NOAEL,rat [11]; [39],50 mg/kg/day
same,LEL,rat [11]; [40],225 mg/kg/day
same,LOAEL,rat [11]; [40],225 mg/kg/day
same,NEL,rat [11]; [40],50 mg/kg/day
same,NOAEL,rat [11]; [40],50 mg/kg/day
CCCCCCCCCCCCC1=C(OC(C)=O)C(=O)c2ccccc2C1=O [Acequinocyl],LEL,rat [12]; systemic / clinical chemistry / gamma glutamyl transpeptides (gtp) / gamma glutamyl transpeptides (gtp) + systemic / urinalysis / appearance…,30.4 mg/kg/day
same,LOAEL,rat [12]; [41],120 mg/kg/day
same,NEL,rat [12]; [41],7.6 mg/kg/day
same,NOAEL,rat [12]; [41],30.4 mg/kg/day
same,LOAEL,rat [13]; systemic / pathology gross / eye / enlarged,9.02 mg/kg/day
same,NOAEL,rat [13]; systemic / pathology gross / eye / enlarged + systemic / in life observation / body weight / body weight + systemic / in life observation / …,2.25 mg/kg/day
same,LEL,rat [13]; [42],2.92 mg/kg/day
same,NEL,rat [13]; [42],< 2.92 mg/kg/day
same,LOAEL,dog [14]; systemic / hematology / platelet / platelet + systemic / hematology / reticulocyte / reticulocyte,20 mg/kg/day
same,NOAEL,dog [14]; systemic / hematology / platelet / platelet + systemic / hematology / reticulocyte / reticulocyte + systemic / clinical chemistry / albumin…,5 mg/kg/day
same,LEL,dog [14]; [43],5 mg/kg/day
same,NEL,dog [14]; [43],< 5 mg/kg/day
same,LEL,rabbit [15]; [44],120 mg/kg/day
same,LOAEL,rabbit [15]; [44],120 mg/kg/day
same,NEL,rabbit [15]; [44],60 mg/kg/day
same,NOAEL,rabbit [15]; [44],60 mg/kg/day
same,LEL,rabbit [15]; [45],120 mg/kg/day
same,LOAEL,rabbit [15]; [45],120 mg/kg/day
same,NEL,rabbit [15]; [45],60 mg/kg/day
same,NOAEL,rabbit [15]; [45],60 mg/kg/day
same,LEL,rat [16]; [46],750 mg/kg/day
same,LOAEL,rat [16]; [46],750 mg/kg/day
same,NEL,rat [16]; [46],500 mg/kg/day
same,NOAEL,rat [16]; [46],500 mg/kg/day
same,LEL,rat [16]; [47],500 mg/kg/day
same,LOAEL,rat [16]; [47],500 mg/kg/day
same,NEL,rat [16]; [47],150 mg/kg/day
same,NOAEL,rat [16]; [47],150 mg/kg/day
same,LEL,mouse [17]; [48],2.7 mg/kg/day
same,NEL,mouse [17]; [48],< 2.7 mg/kg/day
same,NOAEL,mouse [17]; [48],7 mg/kg/day
same,LOAEL,mouse [17]; systemic / pathology microscopic / liver / fatty change + systemic / pathology microscopic / liver / vacuolization,20.3 mg/kg/day
same,LOAEL,dog [18]; [49],40 mg/kg/day
same,NOAEL,dog [18]; [49],< 40 mg/kg/day
same,LEL,dog [18]; [50],40 mg/kg/day
same,NEL,dog [18]; [50],< 40 mg/kg/day
same,LOAEL,mouse [19]; [51],81 mg/kg/day
same,NOAEL,mouse [19]; [51],16 mg/kg/day
same,LEL,mouse [19]; [52],16 mg/kg/day
same,NEL,mouse [19]; [52],< 16 mg/kg/day
COC(=O)c1ccccc1S(=O)(=O)NC(=O)Nc1nc(OC(F)F)cc(OC(F)F)n1 [Primisulfuron-methyl],LEL,dog [20],125 mg/kg/day
same,LOAEL,dog [20],125 mg/kg/day
same,NEL,dog [20],25 mg/kg/day
same,NOAEL,dog [20],25 mg/kg/day
same,LEL,rat [21]; [34],127 mg/kg/day
same,LOAEL,rat [21]; [34],127 mg/kg/day
same,NEL,rat [21]; [53],12.4 mg/kg/day
same,NOAEL,rat [21]; [53],12.4 mg/kg/day
same,LEL,mouse [22],408 mg/kg/day
same,LOAEL,mouse [22],408 mg/kg/day
same,NEL,mouse [22],40.2 mg/kg/day
same,NOAEL,mouse [22],40.2 mg/kg/day
same,LEL,dog [23],250 mg/kg/day
same,LOAEL,dog [23],250 mg/kg/day
same,NEL,dog [23],25 mg/kg/day
same,NOAEL,dog [23],25 mg/kg/day
same,LEL,rat [24],150 mg/kg/day
same,LOAEL,rat [24],150 mg/kg/day
same,NEL,rat [24],15 mg/kg/day
same,NOAEL,rat [24],15 mg/kg/day
